Values quoted from earlier work as cited in PMC2857392 (Biochemistry, 2010).

Assays:
[1] = molecular target: Stx1 B-subunit (Stx1B); details: read-out: dissociation constant (Kd) for B-subunit monomer
[2] = molecular target: Stx1B

Row | Molecule | Kd [1] [µM] | Kd [2] [µM]
1 | OC[C@H]1O[C@H](O[C@@H]2[C@H](O)[C@@H](O)[C@H](O[C@H]3[C@H](O)[C@@H](O)C(O)O[C@@H]3CO)O[C@@H]2CO)[C@H](O)[C@@H](O)[C@H]1O (stereo partly drawn) [Pk trisaccharide, Galα1-4Galβ1-4Glc] | 500 to 1000 | 4800
2 | globotriaosylceramide [Gb3] |  | 0.003
